Reference: paper PMC8699261, “Structural Characterization of Rat Galectin-5, an N-Tailed Monomeric Proto-Type-like Galectin” (Biomolecules, 2021)
Values joined by “and” are separate entries in the source; they are usually repeats but may differ in a detail not shown here. Identical values can stand only once. Like-named read-outs stand apart in the source and are kept apart here.

What was measured:
rat galectin-5 (rGal-5) [1] = biological target: T1, rat galectin-5 (rGal-5) (Rattus norvegicus, UniProt P47967); assay: Isothermal titration calorimetry (ITC) of ligand binding to recombinant rGal-5
T1 construct: we used the full-length protein to obtain structural information on the N-terminal tail; made in house
Procedure: The spacered B (type 2) tetrasaccharide was synthesized as described previously. Titrations were monitored in a PEAQ-ITC calorimeter (Malvern, Westborough, MA, USA), using a galectin-containing solution of 250 µL in PBS (10 mM Na2HPO4, 2 mM KH2PO4, 137 mM NaCl and 3 mM KCl at pH 6.8) containing 10 mM β-mercaptoethanol and injections at 150 s intervals of 2 µL ligand-containing solution (up to adding 36.4 µL) at 25 °C (750 rpm), as described. The protein concentration was 125 μM, and the ligand concentration in the syringe was 2.5 mM. In each titration, a fitted offset parameter was applied to account for potential background. Data processing was performed using the MiroCal PEAQ-ITC Analysis software.

rat galectin-5 (rGal-5) [2] = biological target: T1, rat galectin-5 (rGal-5); assay: Glycan array (609 compounds) tested with biotinylated rGal-5, Alexa555-streptavidin detection; type: binding; settings: 100 µg/mL biotinylated rGal-5; ranking in words
Procedure: The array consisted of 609 compounds covering glycans and polysaccharides printed onto commercial NHS-activated Slide H (Schott Nexterion, Jena, Germany), tested with 100 µg/mL biotinylated rGal-5 and involving Alexa555-labeled streptavidin (Thermo Fisher Scientific, Eugene, OR, USA) as second-step reagent for Innoscan 1100AL scanner-based (Innopsys, Carbonne, France) signal qualification, expressed in medium relative fluorescence units (RFU) and medium absolute deviation (MAD), as described previously. When the fluorescence intensity exceeded the background value by a factor of five, the respective signal was considered to be significant.

[3] = 25 °C, individual titration, protein 125 μM, ligand 2.5 mM in syringe, PBS pH 6.8, read-out: Kd
[4] = (summarises Table 2), read-out: dissociation constant

T1 sequence (P47967 whole entry): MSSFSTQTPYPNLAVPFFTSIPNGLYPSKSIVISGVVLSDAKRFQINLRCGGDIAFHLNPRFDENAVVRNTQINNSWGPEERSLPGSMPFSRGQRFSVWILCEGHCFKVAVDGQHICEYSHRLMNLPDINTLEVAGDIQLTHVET

CC(=O)N[C@H]1C(O)O[C@H](CO)[C@@H](O[C@@H]2O[C@H](CO)[C@H](O)[C@H](O)[C@H]2O)[C@@H]1O (some centres unmarked) [LacNAc, N-acetyllactosamine]
Stoichiometry (rat galectin-5 (rGal-5) [1]; 25 °C, individual titration): 0.92 ± 0.01 and 0.94 ± 0.20
ΔG0obs (rat galectin-5 (rGal-5) [1]; 25 °C, individual titration): -6.1 kcal/mol and -6.0 kcal/mol
ΔH0obs (rat galectin-5 (rGal-5) [1]; 25 °C, individual titration): -10.0 ± 0.2 kcal/mol and -10.5 ± 2.6 kcal/mol
−TΔS0obs (rat galectin-5 (rGal-5) [1]; 25 °C, individual titration): 3.87 kcal/mol and 4.43 kcal/mol
Kd (rat galectin-5 (rGal-5) [1]; [3]): 28.6 µM and 32.3 µM
Kd (rat galectin-5 (rGal-5) [1]; [4]): 30.5 ± 1.9 µM

OC[C@H]1O[C@@H](O[C@H]2[C@H](O)[C@@H](O)C(O)O[C@@H]2CO)[C@H](O)[C@@H](O)[C@H]1O (mixture of isomers) [Lactose, lactose]
Stoichiometry (rat galectin-5 (rGal-5) [1]; 25 °C, individual titration): 0.95 ± 0.05 and 0.99 ± 0.06
ΔG0obs (rat galectin-5 (rGal-5) [1]; 25 °C, individual titration): -5.35 kcal/mol and -5.22 kcal/mol
ΔH0obs (rat galectin-5 (rGal-5) [1]; 25 °C, individual titration): -4.99 ± 0.08 kcal/mol and -5.03 ± 0.41 kcal/mol
−TΔS0obs (rat galectin-5 (rGal-5) [1]; 25 °C, individual titration): -0.36 kcal/mol and -0.18 kcal/mol
Kd (rat galectin-5 (rGal-5) [1]; [3]): 121 µM and 151 µM
Kd (rat galectin-5 (rGal-5) [1]; [4]): 136 ± 16 µM

CC(=O)N[C@H]1C(O)O[C@H](CO)[C@@H](O[C@@H]2O[C@H](CO)[C@H](O)[C@H](O[C@H]3O[C@H](CO)[C@H](O)[C@H](O)[C@H]3O)[C@H]2O)[C@@H]1O (some centres unmarked)
signal intensity in glycan array (rat galectin-5 (rGal-5) [2]): frontrunners in terms of signal intensity

histo-blood-group B (type 2) tetrasaccharide [Tetrasacc haride]
Stoichiometry (rat galectin-5 (rGal-5) [1]; 25 °C, individual titration): 0.98 ± 0.01 and 0.94 ± 0.01
ΔG0obs (rat galectin-5 (rGal-5) [1]; 25 °C, individual titration): -7.11 kcal/mol
ΔH0obs (rat galectin-5 (rGal-5) [1]; 25 °C, individual titration): -5.74 ± 0.03 kcal/mol and -5.60 ± 0.03 kcal/mol
−TΔS0obs (rat galectin-5 (rGal-5) [1]; 25 °C, individual titration): -1.37 kcal/mol and -1.51 kcal/mol
Kd (rat galectin-5 (rGal-5) [1]; [3]): 5 µM and 6.1 µM
Kd (rat galectin-5 (rGal-5) [1]; [4]): 5.5 ± 0.6 µM
signal intensity in glycan array (rat galectin-5 (rGal-5) [2]): frontrunners in terms of signal intensity
